Laboratory results published in US7449570B2, “Use of nucleoside compounds for nonsense suppression and the treatment of genetic diseases” (PTC Therapeutics, Inc., priority 2002, dated 2008).

How the values were obtained:
[1] = test system: luciferase reporter construct containing a UGA premature termination codon; assay: cell-based luciferase reporter assay (nonsense suppression); set-up: key: Compounds which were found to have either or both very high potency and very high efficacy of protein synthesis are classified as “***”; Compounds which were found to have significant potency and/or efficacy of protein synthesis were classified as “**”; compounds which were found to have potency and/or efficacy of protein synthesis were classified as “*”; conditions: UGA premature termination codon luciferase reporter stably transfected in 293T Human Embryonic Kidney cells; qualitative potency/efficacy of protein synthesis; gentamicin internal standard
Procedure: Activity measurements in Table 1 were performed in a cell-based luciferase reporter assay (as described in Section 4.2) comprising a luciferase reporter construct containing a UGA premature termination codon that was stably transfected in 293T Human Embryonic Kidney cells. Gentamicin, a small molecule known to allow readthrough of premature termination codons, was used as an internal standard. Activity measurements are based on the qualitative ratio between the minimum concentration of compound required to produce a given protein in a cell versus the amount of protein produced by the cell at that concentration.
The test compounds identified in the nonsense suppression assay (for convenience referred to herein as a compound of the invention) can be tested for biological activity using host cells containing or engineered to contain the target RNA element coupled to a functional readout system. For example, the lead compound can be tested in a host cell engineered to contain the RNA with the premature translation termination codon controlling the expression of a reporter gene. In this example, the lead compounds are assayed in the presence or absence of the RNA with the premature translation termination codon. Compounds that modulate premature translation termination and/or nonsense-mediated mRNA decay in vivo will result in increased expression of the full-length gene, i.e., past the premature termination codon. Alternatively, a phenotypic or physiological readout can be used to assess activity of the target RNA with the premature translation termination codon in the presence and absence of the lead compound. Both the in vitro and in vivo nonsense suppression assays used herein and as described in International Patent Publication WO 01/44516, which is incorporated by reference herein in its entirety, can be used to identify lead compounds and can also be used to determine an EC50 for the lead compounds.
A stable cell line harboring the UGA nonsense-containing luciferase gene is treated with a test compound. Cells are grown in standard medium supplemented with 1% penicillin-streptomycin (P/S) and 10% fetal bovine serum (FBS) to 70% confluency and split 1:1 the day before treatment. The next day, cells are trypsinized and 40,000 cells are added to each well of a 96-well tissue culture dish. Serial dilutions of each compound are prepared to generate a six-point dose response curve spanning 2 logs (30 μM to 0.3 μM). The final concentration of the DMSO solvent remains constant at 1% in each well. Cells treated with 1% DMSO serve as the background standard, and cells treated with gentamicin serve as a positive control.

[2] = test system: lysosomal tripeptidyl-peptidase 1 (TPP-I); conditions: patient-derived LINCL cell line, compound heterozygous for Arg208Stop and a different rare nonsense mutation; Sleat et al. 2001; cited from earlier work

Compound	Activity [1]	normal levels of TPP-I maximally restored [2]
Nc1ncnc(N[C@@H]2C[C@H](CO)[C@@H](O)[C@H]2O)c1[N+](=O)[O-] [Compound 6, (1R,2S,3R,5R)-3-(6-Amino-5-nitro-pyrimidin-4-ylamino)-5-hydroxymethyl-cyclopentane-1,2-diol]	0	–
Nc1ncnc(N[C@H]2C[C@@H](CO)[C@H](O)[C@@H]2O)c1[N+](=O)[O-] [Compound 7, (1S,2R,3S,5S)-3-(6-Amino-5-nitro-pyrimidin-4-ylamino)-5-hydroxymethyl-cyclopentane-1,2-diol]	0	–
Nc1ncnc(N[C@H]2O[C@H](CO)[C@@H](O)[C@H]2O)c1[N+](=O)[O-] [Compound 22, 6-amino-5-nitro-4-(α-D-ribofuranosylamino)-pyrimidine]	***	–
Nc1ncnc(N[C@@H]2O[C@H](COC(=O)c3ccccc3)[C@@H](OC(=O)c3ccccc3)[C@H]2OC(=O)c2ccccc2)c1[N+](=O)[O-] [Compound 24, 6-Amino-5-nitro-4-[(2,3,5-tri-O-benzoyl-β-D-ribofuranosyl)amino]pyrimidine]	**	–
COC(=O)c1c(Cl)ncnc1N[C@@H]1O[C@H](CO)[C@@H](O)[C@H]1O [Compound 26, Methyl 6-chloro-4-(β-D-ribofuranosylamino)pyrimidine-5-carboxylate]	0	–
COC(=O)c1c(N)ncnc1N[C@H]1O[C@H](CO)[C@@H](O)[C@H]1O [Compound 27, Methyl 6-amino-4-(α-D-ribofuranosylamino)pyrimidine-5-carboxylate]	*	–
gentamicin	–	approximately 7%
